Experimental findings from patent US20250312352A1, “GLP-1R MODULATING COMPOUNDS” (Gilead Sciences, Inc., priority 2021, published 2025) are described below.

A short description of series [1]: Pharmacokinetic (PK) studies, monkey oral PK. It is filed as in vivo, Cynomolgus monkeys. Conditions: for Tmax / AUC(0-t) / Cmax / bioavailability: Cynomolgus monkey, plasma; for Tmax / AUC(0-t) / Cmax: single oral dose 2 mg/kg (CE-1: 1 mg/kg); for AUC(0-t): read-out: AUC0-24 (Arbitrary units); for Cmax: read-out: Cmax (Arbitrary unit); for bioavailability: oral dose 2 mg/kg (CE-1: 1 mg/kg). How it is done:
Examples 54 and 253 were tested along with comparative examples CE-1 and CE-2.
Compounds CE-2, Example 54 or Example 253 were combined with a mixture of 10% NMP (v:v) and 90% PEG300 (v:v), and the mixture was stirred until a homogeneous solution was obtained (1 mg/mL final concentration of test article).
Compound CE-1 was combined with a mixture of 15% 2-hydroxypropyl-o-cyclodextrin (w:v) and 85% Mili-Q water (v:v), and the mixture was stirred until a homogeneous solution was obtained (0.5 mg/mL final concentration of test article).
Young adult non-naive Cynomolgus monkeys with weight about 2.5-5 kg (n=1-3/test article/route) were fasted overnight and then dosed with either CE-1 (at 1 mg test article per kg animal weight), CE-2 (at 2 mg test article per kg animal weight), Example 54 (at 2 mg test article per kg animal weight), or Example 253 (at 2 mg test article per kg animal weight). Food was supplied approximately 4 hours post dose and animals were provided with free access to water all the time. Animals were restrained at designated time points for blood sampling. Approximately 500 μL of blood samples was taken via cephalic or saphenous vein into EDTA-K2 tubes. For oral administration (PO): blood samples were generally collected pre-dose, and at 15 min, 30 min, 1 hr, 2 hr, 4 hr, 8 hr, 12 hr, and 24 hr time points after dosing. Blood was maintained on wet ice, in chilled cryoracks, or at approximately 5° C. prior to centrifugation to obtain plasma. Centrifugation was conducted within 1 hour of collection. Plasma (approximately 200 μL) was placed into a micronic tubes containing 4 μL of formic acid (the final concentration of formic acid in plasma was approximately 2%) and samples were vortex mixed. Samples were maintained on dry ice prior to storage at approximately −70° C.
LC-MS/MS assays were utilized to quantify the concentration of the test articles in plasma as follows.
50 μL plasma sample was mixed with 350 μL of ACN combined with an internal standard. The mixture was then vortexed for about 1-5 min, and centrifuged at about 4,000-5,800 rpm for about […]. An aliquot of 1 μL supernatant was used for LC-MS/MS analysis.
MS conditions: A Sciex API 6500 equipped with electrospray ionization in the positive ion selected reaction monitoring mode was used for detection.
HPLC conditions • Mobile Phase A: H2O-0.1% Formic Acid • Mobile Phase B: ACN-0.1% Formic Acid
• Column: Phenomenex Kinetex XBC18 (2.1×50 mm, 2.6 μm) with a flow rate of 1.20 mL/min • Column temperature: 60° C. • Retention time: approximately between 0.85 to 1.05 • min
Pharmacokinetics parameters, including area under the curve (AUC0-24), maximum plasma concentration (Cmax), time to reach maximum plasma concentration (Tma), oral bioavailability (F %), etc., were calculated using Dotmatics software in non-compartmental model.

The target of the next series is T1, GLP-1R (Homo sapiens, UniProt P43220).
T1 construct: host or cells: CHO cells
T1 sequence (P43220 24-463): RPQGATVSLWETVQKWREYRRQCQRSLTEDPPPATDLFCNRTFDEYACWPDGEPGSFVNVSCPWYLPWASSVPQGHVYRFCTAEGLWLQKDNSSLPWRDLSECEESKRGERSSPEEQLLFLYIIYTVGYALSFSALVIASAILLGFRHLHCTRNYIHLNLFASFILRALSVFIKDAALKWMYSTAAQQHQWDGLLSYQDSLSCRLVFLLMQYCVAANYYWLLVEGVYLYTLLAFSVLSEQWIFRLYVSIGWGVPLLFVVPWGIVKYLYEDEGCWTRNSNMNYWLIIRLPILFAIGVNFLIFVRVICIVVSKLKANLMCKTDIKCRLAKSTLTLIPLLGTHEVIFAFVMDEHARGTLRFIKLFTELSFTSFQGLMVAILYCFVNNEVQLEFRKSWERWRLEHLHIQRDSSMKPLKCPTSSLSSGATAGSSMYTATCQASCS
Description: GLP-1R activation cAMP assay (Assay 1 or Assay 2). It is filed as cell-based. Conditions: cAMP increase in CHO cells stably expressing GLP-1R; compounds run on one of the two cAMP assays. A digest of the protocol:
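EC50 values come from a sigmoidal fit of HTRF-detected cAMP rise versus log agonist concentration. GLP-1R-expressing CHO cells, equilibrated 1 h at 37 °C in HBSS with HEPES and BSA, received a 10-point compound dose series for 30 min before detection.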

For `O=C(O)c1cc(F)c2nc(Cc3cc(F)c(-c4cccc(OCc5ncc(C(F)(F)F)s5)n4)cc3F)n(C[C@@H]3CCO3)c2c1` [Example 253, (S)-2-(2,5-difluoro-4-(6-((5-(trifluoromethyl)thiazol-2-yl)methoxy)pyridin-2-yl)benzyl)-4-fluoro-1-(oxetan-2-ylmethyl)-1H-benzo[d]imidazole-6-carboxylic acid], in series [1], the Tmax stood at 5.3 ± 2.3 h, the AUC(0-t) came out at 6.39 ± 2.36 µM·h, the Cmax amounted to 582 ± 296 nM and the bioavailability was 55.7 ± 20.6%.
In the case of `N#Cc1ccc(COc2cccc(C3CCN(Cc4nc5ccc(C(=O)O)cc5n4C[C@@H]4CCO4)CC3)n2)c(F)c1` [CE-1, (S)-2-((4-(6-((4-cyano-2-fluorobenzyl)oxy)pyridin-2-yl)piperidin-1-yl)methyl)-1-(oxetan-2-ylmethyl)-1H-benzo[d]imidazole-6-carboxylic acid, reference compound], in series [1] (single oral dose of 1 mg/kg, monkey, FIG. 1), the “plasma exposures after the 12 h period” value is reported as “below the detection limit”.
Regarding `O=C(O)c1ccc2nc(Cc3cc(F)c(-c4cccc(OCc5ncc(C(F)(F)F)s5)n4)cc3F)n(C[C@@H]3CCO3)c2c1` [Example 54, (S)-2-(2,5-difluoro-4-(6-((5-(trifluoromethyl)thiazol-2-yl)methoxy)pyridin-2-yl)benzyl)-1-(oxetan-2-ylmethyl)-1H-benzo[d]imidazole-6-carboxylic acid], it took 0.09 nM to reach a half-maximal effect on GLP-1R (EC50). Also, in series [1], the Tmax stood at 4.7 ± 1.2 h, the AUC(0-t) is 14.2 ± 7.69 µM·h, the highest concentration (Cmax) was 1270 ± 628 nM and the bioavailability was determined as 89 ± 33%.
In series [1], `N#Cc1ccc(COc2cccc(C3CCN(Cc4nc5ccc(C(=O)O)cc5n4C[C@@H]4CCO4)CC3)n2)c(F)c1` [Compound CE-1] showed a bioavailability of 2.5 ± 0.2%.
The same measure, in the same setting: the result for `N#Cc1ccc(COc2cccc(-c3cc(F)c(Cc4nc5ccc(C(=O)O)cc5n4C[C@@H]4CCO4)cc3F)n2)c(F)c1` [Compound CE-2] reads 27.4 ± 12.9%.
As for `Cc1ncc(C#Cc2ccc(COc3cccc(-c4cc(F)c(Cc5nc6ccc(C(=O)O)cc6n5C[C@@H]5CCO5)cc4F)n3)c(F)c2)n1C` [Example 149, (S)-2-(4-(6-((4-((1,2-dimethyl-1H-imidazol-5-yl)ethynyl)-2-fluorobenzyl)oxy)pyridin-2-yl)-2,5-difluorobenzyl)-1-(oxetan-2-ylmethyl)-1H-benzo[d]imidazole-6-carboxylic acid], the 50% effective concentration (EC50) on GLP-1R was 0.29 nM.
Still for that read-out and setting: the result for `COCCn1c(Cc2ccc(-c3cccc(OCc4ccc(C#Cc5cnc(N6CC7CCC(C6)N7C6COC6)nc5)cc4F)n3)cc2F)nc2ccc(C(=O)O)cc21` [Example 150, 2-(2-fluoro-4-(6-((2-fluoro-4-((2-(8-(oxetan-3-yl)-3,8-diazabicyclo[3.2.1]octan-3-yl)pyrimidin-5-yl)ethynyl)benzyl)oxy)pyridin-2-yl)benzyl)-1-(2-methoxyethyl)-1H-benzo[d]imidazole-6-carboxylic acid] reads 10 nM.
For `N#Cc1cc(F)c(COc2cccc(-c3cc(F)c(Cc4nc5ccc(C(=O)O)cc5n4C[C@@H]4CCO4)cc3F)n2)s1` [Example 52, (S)-2-(4-(6-((5-cyano-3-fluorothiophen-2-yl)methoxy)pyridin-2-yl)-2,5-difluorobenzyl)-1-(oxetan-2-ylmethyl)-1H-benzo[d]imidazole-6-carboxylic acid], the EC50 at GLP-1R was 0.13 nM.
`Cn1ccc(COc2cccc(-c3cc(F)c(Cc4nc5ccc(C(=O)O)cc5n4C[C@@H]4CCO4)cc3F)n2)n1` [Example 124, (S)-2-(2,5-difluoro-4-(6-((1-methyl-1H-pyrazol-3-yl)methoxy)pyridin-2-yl)benzyl)-1-(oxetan-2-ylmethyl)-1H-benzo[d]imidazole-6-carboxylic acid]: the EC50 on GLP-1R was 0.81 nM.
As for `Cc1cc(COc2cccc(-c3cc(F)c(Cc4nc5ccc(C(=O)O)cc5n4C[C@@H]4CCO4)cc3F)n2)nn1C` [Example 72, (S)-2-(4-(6-((1,5-dimethyl-1H-pyrazol-3-yl)methoxy)pyridin-2-yl)-2,5-difluorobenzyl)-1-(oxetan-2-ylmethyl)-1H-benzo[d]imidazole-6-carboxylic acid], the EC50 on GLP-1R is 0.82 nM.
The same measure, in the same setting: the result for `O=C(O)c1ccc2nc(Cc3cc(F)c(-c4cccc(OCc5ccc(-c6cn([C@H]7CCOC7)nn6)cc5F)n4)cc3F)n(C[C@@H]3CCO3)c2c1` [Example 217, 2-(2,5-difluoro-4-(6-((2-fluoro-4-(1-((S)-tetrahydrofuran-3-yl)-1H-1,2,3-triazol-4-yl)benzyl)oxy)pyridin-2-yl)benzyl)-1-(((S)-oxetan-2-yl)methyl)-1H-benzo[d]imidazole-6-carboxylic acid] reads 0.27 nM.
With `CCOc1nnc(COc2cccc(-c3cc(F)c(Cc4nc5ccc(C(=O)O)cc5n4CC4(CF)CC4)cc3F)n2)s1` [Example 266, 2-(4-(6-((5-ethoxy-1,3,4-thiadiazol-2-yl)methoxy)pyridin-2-yl)-2,5-difluorobenzyl)-1-((1-(fluoromethyl)cyclopropyl)methyl)-1H-benzo[d]imidazole-6-carboxylic acid], at GLP-1R, a half-maximal response (EC50) required 0.367 nM.
